Laboratory results published in ChEMBL document CHEMBL4507319 (2021).

Tests used:
Conditions in all cases: Compound concentration 1.0 uM
[1] = biological target: T1, Rhodopsin kinase GRK1 (Homo sapiens) (UniProt Q15835); assay: GRK1(h) Eurofins kinase panel
T1 sequence (whole entry): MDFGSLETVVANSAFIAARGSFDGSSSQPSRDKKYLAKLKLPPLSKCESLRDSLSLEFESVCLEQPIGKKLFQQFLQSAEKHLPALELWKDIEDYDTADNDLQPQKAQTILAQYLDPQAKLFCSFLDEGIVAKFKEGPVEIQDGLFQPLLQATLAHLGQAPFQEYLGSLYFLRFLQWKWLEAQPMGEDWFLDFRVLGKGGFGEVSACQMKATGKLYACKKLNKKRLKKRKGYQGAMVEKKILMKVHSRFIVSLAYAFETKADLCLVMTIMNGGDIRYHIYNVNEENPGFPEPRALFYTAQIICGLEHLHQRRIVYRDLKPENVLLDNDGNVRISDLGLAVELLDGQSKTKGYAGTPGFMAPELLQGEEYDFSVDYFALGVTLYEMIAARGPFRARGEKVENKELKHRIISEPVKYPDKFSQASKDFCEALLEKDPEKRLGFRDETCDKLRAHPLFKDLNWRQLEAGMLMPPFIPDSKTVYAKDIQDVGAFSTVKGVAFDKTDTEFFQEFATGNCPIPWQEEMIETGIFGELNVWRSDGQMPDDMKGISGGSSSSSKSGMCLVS

[2] = biological target: T2, Ephrin type-B receptor 2 (Homo sapiens) (UniProt P29323); assay: EphB2(h) Eurofins kinase panel
T2 sequence (whole entry): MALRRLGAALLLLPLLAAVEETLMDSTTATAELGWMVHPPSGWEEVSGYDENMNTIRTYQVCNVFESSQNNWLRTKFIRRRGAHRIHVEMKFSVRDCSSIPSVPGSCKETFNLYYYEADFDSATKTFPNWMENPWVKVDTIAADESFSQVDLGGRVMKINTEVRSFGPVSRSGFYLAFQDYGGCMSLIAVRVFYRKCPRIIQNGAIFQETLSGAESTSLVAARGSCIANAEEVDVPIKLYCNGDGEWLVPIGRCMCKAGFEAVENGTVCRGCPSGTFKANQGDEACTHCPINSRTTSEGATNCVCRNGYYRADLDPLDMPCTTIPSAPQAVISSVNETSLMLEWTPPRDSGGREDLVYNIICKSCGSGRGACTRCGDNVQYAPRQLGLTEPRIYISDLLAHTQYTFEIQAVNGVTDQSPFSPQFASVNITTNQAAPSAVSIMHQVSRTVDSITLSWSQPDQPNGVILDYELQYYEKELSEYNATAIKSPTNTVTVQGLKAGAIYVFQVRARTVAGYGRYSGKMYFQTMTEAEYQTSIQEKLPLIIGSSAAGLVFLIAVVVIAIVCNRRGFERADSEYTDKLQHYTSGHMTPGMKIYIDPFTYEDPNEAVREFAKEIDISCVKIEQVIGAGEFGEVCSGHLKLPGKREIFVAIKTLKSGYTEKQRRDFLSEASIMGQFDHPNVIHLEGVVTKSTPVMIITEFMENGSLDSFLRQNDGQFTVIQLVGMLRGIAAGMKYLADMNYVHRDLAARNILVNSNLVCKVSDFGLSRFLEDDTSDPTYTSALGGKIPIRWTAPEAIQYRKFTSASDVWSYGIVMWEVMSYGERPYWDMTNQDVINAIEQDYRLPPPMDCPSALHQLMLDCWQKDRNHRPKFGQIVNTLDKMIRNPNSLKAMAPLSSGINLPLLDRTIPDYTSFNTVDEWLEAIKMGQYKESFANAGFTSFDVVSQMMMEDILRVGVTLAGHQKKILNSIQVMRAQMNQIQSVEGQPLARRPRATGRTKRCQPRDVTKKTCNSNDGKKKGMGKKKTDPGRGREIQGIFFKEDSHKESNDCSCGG

[3] = biological target: RAF proto-oncogene serine/threonine-protein kinase (Homo sapiens) (UniProt P04049); assay: c-RAF(h) Eurofins kinase panel
Sequence of RAF proto-oncogene serine/threonine-protein kinase (Homo sapiens) (P04049 whole entry): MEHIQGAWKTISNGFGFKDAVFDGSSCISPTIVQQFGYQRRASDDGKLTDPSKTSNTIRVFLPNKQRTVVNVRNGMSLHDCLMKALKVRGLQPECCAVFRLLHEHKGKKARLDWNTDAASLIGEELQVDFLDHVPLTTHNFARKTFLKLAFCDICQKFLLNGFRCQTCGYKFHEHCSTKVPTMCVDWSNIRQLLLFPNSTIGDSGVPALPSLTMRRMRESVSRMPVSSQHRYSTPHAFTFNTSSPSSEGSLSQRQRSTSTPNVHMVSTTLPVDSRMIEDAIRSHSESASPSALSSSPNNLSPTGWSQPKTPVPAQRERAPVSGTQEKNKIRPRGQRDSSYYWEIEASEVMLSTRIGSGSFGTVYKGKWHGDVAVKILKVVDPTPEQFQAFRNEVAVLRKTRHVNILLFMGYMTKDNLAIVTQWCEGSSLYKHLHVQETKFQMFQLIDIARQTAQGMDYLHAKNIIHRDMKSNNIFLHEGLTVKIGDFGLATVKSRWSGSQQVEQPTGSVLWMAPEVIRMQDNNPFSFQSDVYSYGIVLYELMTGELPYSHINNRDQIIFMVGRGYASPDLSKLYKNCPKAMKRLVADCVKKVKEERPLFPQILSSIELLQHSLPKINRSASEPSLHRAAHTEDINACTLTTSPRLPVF

[4] = biological target: SRSF protein kinase 3 (Homo sapiens) (UniProt Q9UPE1); assay: MSSK1(h) Eurofins kinase panel
Sequence of SRSF protein kinase 3 (Homo sapiens) (Q9UPE1 whole entry): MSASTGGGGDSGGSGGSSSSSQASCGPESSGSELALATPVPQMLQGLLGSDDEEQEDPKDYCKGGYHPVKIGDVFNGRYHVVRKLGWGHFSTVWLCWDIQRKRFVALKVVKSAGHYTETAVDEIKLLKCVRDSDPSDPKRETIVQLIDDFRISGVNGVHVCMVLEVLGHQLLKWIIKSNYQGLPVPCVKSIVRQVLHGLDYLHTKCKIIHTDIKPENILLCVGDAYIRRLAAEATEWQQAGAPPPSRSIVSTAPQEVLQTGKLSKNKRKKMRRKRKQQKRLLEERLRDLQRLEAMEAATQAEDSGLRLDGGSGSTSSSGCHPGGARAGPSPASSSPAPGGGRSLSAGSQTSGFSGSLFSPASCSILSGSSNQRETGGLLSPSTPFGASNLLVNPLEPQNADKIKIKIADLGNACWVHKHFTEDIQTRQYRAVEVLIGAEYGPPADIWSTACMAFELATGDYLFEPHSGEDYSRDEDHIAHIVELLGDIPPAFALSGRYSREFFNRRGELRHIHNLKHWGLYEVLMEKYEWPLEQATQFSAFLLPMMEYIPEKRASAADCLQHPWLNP

[5] = biological target: Calcium/calmodulin-dependent protein kinase type 1 (Homo sapiens) (UniProt Q14012); assay: CaMKI(h) Eurofins kinase panel
Sequence of Calcium/calmodulin-dependent protein kinase type 1 (Homo sapiens) (Q14012 whole entry, looked up): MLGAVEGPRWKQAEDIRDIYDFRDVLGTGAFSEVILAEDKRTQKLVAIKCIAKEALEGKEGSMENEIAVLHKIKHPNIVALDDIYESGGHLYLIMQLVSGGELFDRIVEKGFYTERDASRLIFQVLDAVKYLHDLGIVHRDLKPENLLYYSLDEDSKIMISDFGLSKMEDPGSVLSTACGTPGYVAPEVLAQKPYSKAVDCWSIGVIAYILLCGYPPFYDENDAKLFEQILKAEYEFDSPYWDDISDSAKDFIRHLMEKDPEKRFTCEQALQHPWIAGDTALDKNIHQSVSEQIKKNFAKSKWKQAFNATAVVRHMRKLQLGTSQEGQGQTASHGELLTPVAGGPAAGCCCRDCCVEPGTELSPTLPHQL

[6] = biological target: T3, Ephrin type-A receptor 3 (Homo sapiens) (UniProt P29320); assay: EphA3(h) Eurofins kinase panel
T3 sequence (whole entry): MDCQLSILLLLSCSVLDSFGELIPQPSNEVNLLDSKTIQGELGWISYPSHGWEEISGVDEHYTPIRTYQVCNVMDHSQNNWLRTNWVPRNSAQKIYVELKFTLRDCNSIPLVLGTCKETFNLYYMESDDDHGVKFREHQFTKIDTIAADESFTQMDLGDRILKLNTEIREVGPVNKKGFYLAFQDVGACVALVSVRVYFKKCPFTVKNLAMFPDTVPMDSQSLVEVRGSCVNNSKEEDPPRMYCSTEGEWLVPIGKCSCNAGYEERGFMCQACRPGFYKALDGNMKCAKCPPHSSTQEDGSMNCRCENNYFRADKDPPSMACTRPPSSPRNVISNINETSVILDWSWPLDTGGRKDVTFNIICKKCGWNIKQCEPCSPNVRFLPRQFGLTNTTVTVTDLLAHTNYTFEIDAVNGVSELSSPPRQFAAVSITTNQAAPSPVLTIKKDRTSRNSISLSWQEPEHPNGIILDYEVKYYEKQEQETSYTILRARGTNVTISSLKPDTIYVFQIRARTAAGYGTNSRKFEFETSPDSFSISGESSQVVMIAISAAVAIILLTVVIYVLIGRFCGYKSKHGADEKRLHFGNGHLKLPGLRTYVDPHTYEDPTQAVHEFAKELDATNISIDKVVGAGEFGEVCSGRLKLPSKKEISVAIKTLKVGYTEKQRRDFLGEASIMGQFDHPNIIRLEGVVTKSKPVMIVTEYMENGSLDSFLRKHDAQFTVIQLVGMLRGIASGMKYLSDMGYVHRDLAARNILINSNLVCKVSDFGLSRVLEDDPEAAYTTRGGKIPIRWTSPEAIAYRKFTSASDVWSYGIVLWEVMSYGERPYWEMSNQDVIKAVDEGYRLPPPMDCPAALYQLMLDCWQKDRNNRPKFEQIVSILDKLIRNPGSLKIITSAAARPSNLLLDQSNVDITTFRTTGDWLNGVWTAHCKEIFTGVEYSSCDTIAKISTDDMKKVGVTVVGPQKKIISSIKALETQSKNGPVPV

[7] = biological target: Death-associated protein kinase 2 (Homo sapiens) (UniProt Q9UIK4); assay: DAPK2(h) Eurofins kinase panel
Sequence of Death-associated protein kinase 2 (Homo sapiens) (Q9UIK4 whole entry, looked up): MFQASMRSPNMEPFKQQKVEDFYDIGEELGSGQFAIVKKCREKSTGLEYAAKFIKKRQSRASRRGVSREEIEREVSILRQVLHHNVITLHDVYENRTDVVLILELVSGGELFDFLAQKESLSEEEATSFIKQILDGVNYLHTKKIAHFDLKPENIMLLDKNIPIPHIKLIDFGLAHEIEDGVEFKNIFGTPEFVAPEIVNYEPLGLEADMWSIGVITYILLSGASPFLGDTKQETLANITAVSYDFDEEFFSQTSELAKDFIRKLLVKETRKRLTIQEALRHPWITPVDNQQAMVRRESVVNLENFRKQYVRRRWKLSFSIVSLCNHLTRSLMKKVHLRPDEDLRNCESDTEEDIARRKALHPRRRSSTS

Measured: % residual kinase activity

CCc1ccccc1C(=O)Nc1n[nH]c2c(C)c(F)c(C3C(C#N)=C(C)N(C)C(C)=C3C#N)cc12 [BAY-3827]
inactive: [1] 72% | [2] 98% | [3] 99% | [4] 39% | [5] 93% | [6] 112% | [7] 96%
